From patent publication US20130266557A1, “METHODS FOR TREATMENT OF A SARCOMA USING AN EPIMETABOLIC SHIFTER (COENZYME Q10)” (priority 2009, published 2013)

What was measured:
Assay in all cases: Induction of early apoptosis by CoQ10
Assay type in all cases: cell-based
HepG2 = system: HepG2
Experimental: (§1) The effects of Coenzyme Q10 treatment on a variety of oncogenic and normal cell lines were examined and compared. The sensitivity of cells to Coenzyme Q10 was assessed by monitoring induction of apoptosis. CoQ10 treatment of cells was carried out as described in detail below in the Materials and Methods. Induction of apoptosis was assessed in the treated cells by monitoring indicators of early apoptosis (e.g., Bcl-2 expression, caspase activation and by using annexin V assays) as described below. From these studies, the minimal CoQ10 dosage, e.g., concentration of CoQ10 and time of treatment, required to induce apoptosis in the panel of cell lines was determined.
(§2) Cells were cultured in T-75 flasks with relevant medium supplemented with 10% Fetal Bovine Serum (FBS), 1% PSA (penicillin, streptomycin, amphotericin B) (Invitrogen and Cellgro) in a 37° C. incubator with 5% CO2 levels until 70-80% confluence was reached. To harvest cells for treatment, flasks were primed with 1 mL Trypsin, aspirated, trypsinized with an additional 3 mL, and incubated at 37° C. for 3-5 minutes. Cells were then neutralized with an equal volume of media and the subsequent solution was centrifuged at […] for 8 minutes. The supernatant was aspirated and the cells were resuspended with 8.5 ml of media. A mixture of 500 ul of the resuspension and 9.5 ml of […] was read twice by a coulter counter and the appropriate number of cells to be seeded into each dish was determined. Control and concentration ranging from 0-200 μM groups were examined in triplicate. From a 500 μM CoQ-10 stock solution, serial dilutions were performed to achieve desired experimental concentration in appropriate dishes. Dishes were incubated in a 37° C. incubator with 5% CO2 levels for 0-72 hours depending on cell type and experimental protocol.
(§3) The volume of sample to load per well was determined using the raw mean concentration of protein obtained from the BCA protein assay. Approximately 30-60 μg of protein were loaded for each treatment time point. Proteins were run in triplicate on 12% Tris-HCl ready gels (Bio-Rad) or hand cast gels in 1× running buffer at 85 and 100 volts. Proteins were then transferred onto nitrocellulose paper for an hour at 100 volts, and blocked for another hour in a 5% milk solution. Membranes were placed in primary antibody (1 uL Ab:1000 uL TBST) (Cell Signaling) overnight at […] The following day, membranes were washed three times for ten minutes each with Tris-Buffered Saline Tween-20 (TBST), and secondary antibody (anti-rabbit; 1 uL Ab: 1000 uL TBST) was applied for an hour at […] Membranes were washed again three times for ten minutes with TBST and chemoluminescence using Pico or Femto substrate was completed (Pierce). Membranes were then developed at time intervals that produced the best visual results. After developing, membranes were kept in TBST at […] until Actin levels could be measured.
(§4) Cells were washed twice in PBS10× and resuspended in Binding Buffer (0.1 M HEPES, pH 7.4; 1.4 M NaCl; 25 mM CaCl2). Samples of 100 μl were added to a culture tube with 5 μl of annexin-PE dye or […]. The cells were mixed and incubated without light at room temperature for 15 minutes. After which, 400 μl of 1×Binding Buffer was added to each sample and they were subjected to analysis by flow cytometry.

MDA MB 468 = system: MDA MB 468
Experimental: as §1, §2, §3, §4

BT-20 = system: BT-20
Experimental: as §1, §2, §3, §4

Hep3B = system: Hep3B
Experimental: as §1, §2, §3, §4

Fibroblasts (nFib) = conditions: SKIN: Fibroblasts (nFib)
Experimental: as §1, §2, §3, §4

[1] = system: Mammary fiboblasts: 184A1 and 184B5; conditions: BREAST: Mammary fiboblasts 184A1 and 184B5
Experimental: as §1, §2, §3, §4

ZR-75 = system: ZR-75
Experimental: as §1, §2, §3, §4

SkBr-3 = system: SkBr-3
Experimental: as §1, §2, §3, §4

Ewing's sarcoma (NCI) = system: Ewing's sarcoma (NCI)
Experimental: as §1, §2, §3, §4

Osteosarcoma (143b) = system: Osteosarcoma (143b)
Experimental: as §1, §2, §3, §4

Melanoma (Skmel 28) = system: Melanoma (Skmel 28)
Experimental: as §1, §2, §3, §4

Melanoma (Skmel 2) = system: Melanoma (Skmel 2)
Experimental: as §1, §2, §3, §4

Melanocytes (Hema, LP) = conditions: SKIN: Melanocytes (Hema, LP)
Experimental: as §1, §2, §3, §4

PC3 = system: PC3
Experimental: as §1, §2, §3, §4

[2] = system: Keratinocytes (Heka, Hekn); conditions: SKIN: Keratinocytes (Heka, Hekn)
Experimental: as §1, §2, §3, §4

[3] = system: SCC, Squamous cell carcinoma
Experimental: as §1, §2, §3, §4

PaCa2 = system: PaCa2
Experimental: as §1, §2, §3, §4

## Coenzyme Q10 [CoQ10]
HepG2; HepG2
  Minimal CoQ10 Concentration required for induction of early apoptosis: 50 µM
  Treatment Time required for induction of early apoptosis: 24 h
HepG2; LIVER: HepG2
  Indication of Early apoptosis (Bcl-2, annexin V, or caspase activation): Very Strong
MDA MB 468; BREAST: MDA MB 468
  Indication of Early apoptosis (Bcl-2, annexin V, or caspase activation): Strong
MDA MB 468; MDA MB 468
  Minimal CoQ10 Concentration required for induction of early apoptosis: 100 µM
  Treatment Time required for induction of early apoptosis: 48 h
BT-20; BREAST: BT-20
  Indication of Early apoptosis (Bcl-2, annexin V, or caspase activation): Strong
BT-20; BT-20
  Minimal CoQ10 Concentration required for induction of early apoptosis: 100 µM
  Treatment Time required for induction of early apoptosis: 48 h
Hep3B; Hep3B
  Minimal CoQ10 Concentration required for induction of early apoptosis: 50 µM
  Treatment Time required for induction of early apoptosis: 24 h
Hep3B; LIVER: Hep3B
  Indication of Early apoptosis (Bcl-2, annexin V, or caspase activation): Very Strong
Fibroblasts (nFib)
  Indication of Early apoptosis (Bcl-2, annexin V, or caspase activation): None
[1]
  Indication of Early apoptosis (Bcl-2, annexin V, or caspase activation): None
ZR-75; BREAST: ZR-75
  Indication of Early apoptosis (Bcl-2, annexin V, or caspase activation): Slight
ZR-75; ZR-75
  Minimal CoQ10 Concentration required for induction of early apoptosis: 200 µM
  Treatment Time required for induction of early apoptosis: 72 h
SkBr-3; BREAST: SkBr-3
  Indication of Early apoptosis (Bcl-2, annexin V, or caspase activation): Very Strong
SkBr-3; SkBr-3
  Minimal CoQ10 Concentration required for induction of early apoptosis: 50 µM
  Treatment Time required for induction of early apoptosis: 24 h
Ewing's sarcoma (NCI)
  Minimal CoQ10 Concentration required for induction of early apoptosis: 5 µM
  Treatment Time required for induction of early apoptosis: 1 h
Osteosarcoma (143b); BONE: Osteosarcoma (143b)
  Indication of Early apoptosis (Bcl-2, annexin V, or caspase activation): Very Strong
Osteosarcoma (143b); Osteosarcoma (143b)
  Minimal CoQ10 Concentration required for induction of early apoptosis: 50 µM
  Treatment Time required for induction of early apoptosis: 48 h
Melanoma (Skmel 28); Melanoma (Skmel 28)
  Minimal CoQ10 Concentration required for induction of early apoptosis: 20 µM
  Treatment Time required for induction of early apoptosis: 24 h
Melanoma (Skmel 28); SKIN: Melanoma (Skmel 28)
  Indication of Early apoptosis (Bcl-2, annexin V, or caspase activation): Strong
Melanoma (Skmel 2); Melanoma (Skmel 2)
  Minimal CoQ10 Concentration required for induction of early apoptosis: 25 µM
  Treatment Time required for induction of early apoptosis: 24 h
Melanoma (Skmel 2); SKIN: Melanoma (Skmel 2)
  Indication of Early apoptosis (Bcl-2, annexin V, or caspase activation): Very Strong
Melanocytes (Hema, LP)
  Indication of Early apoptosis (Bcl-2, annexin V, or caspase activation): None
PC3; PC3
  Minimal CoQ10 Concentration required for induction of early apoptosis: 25 µM
  Treatment Time required for induction of early apoptosis: 24 h
PC3; PROSTATE: PC3
  Indication of Early apoptosis (Bcl-2, annexin V, or caspase activation): Very Strong
[2]
  Indication of Early apoptosis (Bcl-2, annexin V, or caspase activation): None
[3]; SCC
  Minimal CoQ10 Concentration required for induction of early apoptosis: 25 µM
  Treatment Time required for induction of early apoptosis: 24 h
[3]; SKIN: SCC
  Indication of Early apoptosis (Bcl-2, annexin V, or caspase activation): Very Strong
PaCa2; PANCREAS: PaCa2
  Indication of Early apoptosis (Bcl-2, annexin V, or caspase activation): Very Strong
PaCa2; PaCa2
  Minimal CoQ10 Concentration required for induction of early apoptosis: 25 µM
  Treatment Time required for induction of early apoptosis: 24 h
